# Results as given in ChEMBL document CHEMBL2331395, “Natural product coumarins that inhibit human carbonic anhydrases” (Bioorg Med Chem, 2013).
# Tests used:
# [1] = molecular target: Carbonic anhydrase 7 (Homo sapiens, UniProt P43166); assay: Inhibition of human carbonic anhydrase 7 preincubated for 6 hrs by CO2 hydration stopped-flow assay
# [2] = molecular target: Carbonic anhydrase 13 (Homo sapiens, UniProt Q8N1Q1); assay: Inhibition of human carbonic anhydrase 13 preincubated for 6 hrs by CO2 hydration stopped-flow assay
# [3] = molecular target: Carbonic anhydrase 2 (Homo sapiens, UniProt P00918); assay: Inhibition of human carbonic anhydrase 2 preincubated for 6 hrs by CO2 hydration stopped-flow assay
# [4] = molecular target: Carbonic anhydrase 9 (Homo sapiens, UniProt Q16790); assay: Inhibition of human carbonic anhydrase 9 preincubated for 6 hrs by CO2 hydration stopped-flow assay
# [5] = molecular target: Carbonic anhydrase 1 (Homo sapiens, UniProt P00915); assay: Inhibition of human carbonic anhydrase 1 preincubated for 6 hrs by CO2 hydration stopped-flow assay
# [6] = molecular target: Carbonic anhydrase 12 (Homo sapiens, UniProt O43570); assay: Inhibition of human carbonic anhydrase 12 preincubated for 6 hrs by CO2 hydration stopped-flow assay
# Carbonic anhydrase 12, sequence (O43570 whole entry): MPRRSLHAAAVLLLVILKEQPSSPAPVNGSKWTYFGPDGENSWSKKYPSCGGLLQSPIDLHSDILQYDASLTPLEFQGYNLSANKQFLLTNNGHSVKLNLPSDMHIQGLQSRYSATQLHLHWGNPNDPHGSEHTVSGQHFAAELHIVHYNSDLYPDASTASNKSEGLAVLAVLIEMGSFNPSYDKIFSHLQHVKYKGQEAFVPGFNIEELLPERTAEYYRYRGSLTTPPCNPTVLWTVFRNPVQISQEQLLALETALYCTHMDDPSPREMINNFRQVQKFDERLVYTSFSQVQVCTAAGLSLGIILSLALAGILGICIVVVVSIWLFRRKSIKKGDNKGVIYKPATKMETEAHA
# Carbonic anhydrase 7, sequence (P43166 whole entry): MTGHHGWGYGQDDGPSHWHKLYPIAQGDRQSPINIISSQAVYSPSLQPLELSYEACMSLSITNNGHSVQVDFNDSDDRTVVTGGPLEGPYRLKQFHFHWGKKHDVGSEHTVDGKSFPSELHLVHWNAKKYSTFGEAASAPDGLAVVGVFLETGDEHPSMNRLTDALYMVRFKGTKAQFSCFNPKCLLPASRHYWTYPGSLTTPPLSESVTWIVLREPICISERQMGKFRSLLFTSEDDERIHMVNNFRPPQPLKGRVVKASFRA
# Carbonic anhydrase 13, sequence (Q8N1Q1 whole entry): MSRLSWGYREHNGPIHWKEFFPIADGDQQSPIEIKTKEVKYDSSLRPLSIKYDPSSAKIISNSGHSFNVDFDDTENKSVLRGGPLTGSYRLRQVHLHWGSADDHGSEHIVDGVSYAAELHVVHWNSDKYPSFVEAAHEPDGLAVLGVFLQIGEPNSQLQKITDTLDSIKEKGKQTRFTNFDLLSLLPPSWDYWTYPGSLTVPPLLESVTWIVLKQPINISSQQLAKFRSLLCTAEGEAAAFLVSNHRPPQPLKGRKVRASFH
# Carbonic anhydrase 1, sequence (P00915 whole entry): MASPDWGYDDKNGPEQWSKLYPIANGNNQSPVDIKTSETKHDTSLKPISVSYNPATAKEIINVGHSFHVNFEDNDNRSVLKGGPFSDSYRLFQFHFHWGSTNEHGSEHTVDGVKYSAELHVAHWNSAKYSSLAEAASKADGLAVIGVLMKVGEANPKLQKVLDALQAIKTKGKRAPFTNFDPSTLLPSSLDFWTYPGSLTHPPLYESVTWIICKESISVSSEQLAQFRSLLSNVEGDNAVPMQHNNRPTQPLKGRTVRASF
Ki [1],Ki [2],Ki [3],Ki [4],Ki [5],Ki [6],SMILES
> 1000 µM,> 1000 µM,,,,,O=c1ccc2ccccc2o1 [COUMARIN]
,,> 100 µM,8.12 µM,,,COc1ccc2ccc(=O)oc2c1C(C=O)=C(C)C [MURRALONGIN]
,,9.65 µM,0.76 µM,,,COc1cc(OC)c2ccc(=O)oc2c1OC
8.98 µM,29.3 µM,> 100 µM,0.78 µM,8.46 µM,0.77 µM,COc1c2c(c3ccc(=O)oc3c1/C=C/C(C)(C)O)OC(C)(C)C=C2 [AVICENNOL]
,,> 100 µM,0.85 µM,,,COc1cc2ccc(=O)oc2c(O)c1OC
,,> 100 µM,4.03 µM,,,C/C(=C\COc1ccc2ccc(=O)oc2c1)CCC(=O)C(C)(C)O
,,> 100 µM,3.22 µM,,,COc1ccc(-c2c3n(c4c(=O)oc5cc(O)c(OC)cc5c24)CCc2c-3cc(OC)c(OC)c2O)cc1O
9.18 µM,8.36 µM,> 100 µM,7.51 µM,21.5 µM,25.7 µM,CC1(C)C=Cc2cc3ccc(=O)oc3cc2O1 [XANTHYLETIN]
8.71 µM,17.8 µM,> 100 µM,0.96 µM,10.6 µM,4.05 µM,COc1cc2ccc(=O)oc2cc1O [SCOPOLETIN]
,,78.9 µM,9.75 µM,,,C/C(=C\Cc1cc2ccc(=O)oc2cc1O)CO
8.87 µM,21 µM,50.7 µM,,9.31 µM,0.81 µM,CCCc1cc(=O)oc2c3c(c4c(c12)OC(C)(C)C=C4)O[C@H](C)[C@@H](C)[C@H]3O [(+)-CALANOLIDE B]
,,> 100 µM,3.27 µM,,,COc1ccc(-c2c3n(c4c(=O)oc5cc(OC)c(O)cc5c24)CCc2cc(OS(=O)(=O)O)c(OC)cc2-3)cc1O
9.28 µM,4.24 µM,> 100 µM,6.58 µM,0.0097 µM,18.2 µM,COc1cc2ccc(=O)oc2c(OC)c1OC [FRAXIDIN METHYL ETHER]
23.8 µM,5.27 µM,> 100 µM,7.37 µM,14 µM,4.14 µM,COc1cc2oc(=O)ccc2cc1O [ISOSCOPOLETIN]
,,> 100 µM,6.33 µM,,,COc1cc(-c2c3c4cc(OC)c(O)cc4oc(=O)c3n3ccc4c(OC)c(OC)c(OC)cc4c23)ccc1O
> 100 µM,,> 100 µM,0.67 µM,,,C=C(C)C(COC(=O)c1cccnc1)c1c(OC)ccc2ccc(=O)oc12 (centres undefined)
,,> 100 µM,8.72 µM,,,COc1cc2ccc(=O)oc2cc1O[C@@H]1O[C@H](CO)[C@@H](O)[C@H](O)[C@H]1O [SCOPOLIN]
,,> 100 µM,17.4 µM,,,COc1cc2c(=O)oc3c(OC)c(OC)cc4c(=O)oc(c1O)c2c34
,,> 100 µM,0.62 µM,,,C=C(C)/C=C/c1c(OC)c2c(c3ccc(=O)oc13)OC(C)(C)C=C2
,,> 100 µM,3.5 µM,,,COc1cc2oc(=O)ccc2c2c1C=CC(C)(C)O2 [ALLOXANTHOXYLETIN]
,,> 100 µM,0.85 µM,,,COc1c(O)ccc2ccc(=O)oc12
3.87 µM,9.8 µM,> 100 µM,0.37 µM,5.04 µM,7.45 µM,COc1cc2ccc(=O)oc2c(O[C@@H]2O[C@H](CO)[C@@H](O)[C@H](O)[C@H]2O)c1O [FRAXINE]
8.79 µM,4.24 µM,,79.8 µM,68.2 µM,8.15 µM,O=c1oc2c(O)c(O)cc3c(=O)oc4c(O)c(O)cc1c4c23 [ELLAGIC ACID]

SMILES,Ki [1],Ki [2],Ki [3],Ki [4],Ki [5],Ki [6]
COc1c2c(c(OC)c3oc(=O)ccc13)OC(C)(C)C=C2,,> 100 µM,49.3 µM,0.86 µM,,
C/C(=C\COc1ccc2ccc(=O)oc2c1)C1=CC(=O)C(C)(C)O1 [GEIPARVARIN],7.82 µM,9.62 µM,> 100 µM,0.6 µM,9.75 µM,0.83 µM
COc1c2c(cc3oc(=O)ccc13)OC(C)(C)C=C2 [XANTHOXYLETIN],6.27 µM,3.15 µM,> 100 µM,0.74 µM,7.71 µM,0.96 µM
CC(CCOc1ccc2ccc(=O)oc2c1)C1=CC(=O)C(C)(C)O1 (centres undefined),,,63.4 µM,0.89 µM,,
